Columns and labels:
Assay in all cases: cell viability (% survival relative to DMSO control, bortezomib = 0%); higher = less cytotoxic
Conditions in all cases: 72 h
HL-60 = test system: HL-60
Method in brief: (§1)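 Fifteen myeloid leukaemia cell lines (10 AML, 5 CML) were seeded at a density titrated to the linear growth range. They went into 384-well plates with compounds pre-printed at 1, 10, 100, 1000 or 10000 nM in duplicate. After 72 h at 37 °C with 5% CO2, viability was read by CellTiter-Glo luminescence. Values are percent survival, with vehicle set to 100% and a 10 µM positive control to 0%, averaged over the duplicates.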

KG-1 = test system: KG-1
Method in brief: as §1

K-562 = test system: K-562
Method in brief: as §1

MV4-11 = test system: MV4-11
Method in brief: as §1

Compound	cell viability (HL-60; 1 nM) [%]	cell viability (HL-60; 10 nM) [%]	cell viability (HL-60; 100 nM) [%]	cell viability (HL-60; 1000 nM) [%]	cell viability (HL-60; 10000 nM) [%]	cell viability (KG-1; 1 nM) [%]	cell viability (KG-1; 10 nM) [%]	cell viability (KG-1; 100 nM) [%]	cell viability (KG-1; 1000 nM) [%]	cell viability (KG-1; 10000 nM) [%]	cell viability (K-562; 1 nM) [%]	cell viability (K-562; 10 nM) [%]	cell viability (K-562; 100 nM) [%]	cell viability (K-562; 1000 nM) [%]	cell viability (K-562; 10000 nM) [%]	cell viability (MV4-11; 1 nM) [%]	cell viability (MV4-11; 10 nM) [%]	cell viability (MV4-11; 100 nM) [%]	cell viability (MV4-11; 1000 nM) [%]	cell viability (MV4-11; 10000 nM) [%]
Clc1ccc2c(c1Cl)CNCC2	101	194	90.1	103	95.8	94.3	98.7	98.7	101	71.9	103	97.7	95.4	107	88.7	99.7	114	96.3	114	91.6
O=C(O)C(S)=Cc1c[nH]c2ccc(F)cc12	98.3	103	111	66.7	90.7	101	95.1	106	101	66.3	91	95.7	90.1	116	85.9	96.2	97.6	81.7	103	83.6
CC(C)Cc1sc(N)nc1-c1ccc(P(=O)(O)O)o1	56.2	90.1	72.8	105	67	110	90.8	102	98.8	108	104	118	109	103	92.5	102	101	113	101	87.3
Cl.OC[C@H]1NC[C@@H](O)[C@@H](O)[C@@H]1O [1-Deoxymannojirimycin hydrochloride]	98.5	79.5	102	124	80.5	105	92.3	90.6	112	94.1	93.7	70.4	104	103	91.6	102	92.2	99.3	105	80.8
CN(C)c1nc(O)c2[nH]cnc2n1 [2-Dimethylamino-6-hydroxypurine]	103	81.4	79.9	110	90.1	106	94.3	92.7	96.7	85.8	108	89.2	92.2	117	92	101	98.8	97.2	102	89.8
O=C(O)c1cc2sccc2[nH]1 [4H-thieno[3,2-b]pyrrole-5-carboxylic acid]	117	104	90.6	69.1	95.3	105	106	92.7	91.8	95.2	86.6	106	101	101	105	107	93	93.2	92.9	96.8
[N-]=[N+]=CC(=O)CC[C@H](N)C(=O)O [6-Diazo-5-oxo-L-norleucine]	64.7	83.2	135	97.5	106	110	95.2	101	117	98.9	70.8	99.6	99.5	104	92.5	78.2	106	108	97.1	105
Sc1ncnc2nc[nH]c12 [6-mercaptopurine]	144	85.8	118	54.7	15.2	112	103	93.4	97.9	89.4	110	88.9	102	39.9	8.69	87	85.5	80.1	27.3	24.7
O=C(O)CC[C@H](NC(=O)c1ccc([N+](=O)[O-])cc1)C(=O)O [(S)-2-(4-Nitrobenzamido)pentanedioic acid]	78	107	113	83.6	93.7	95.5	93.2	97.4	98.6	99.9	76.6	91.8	84.6	102	110	89.6	103	80	96.6	85.9
O=C1Nc2ccccc2/C1=C\NCCc1ccc(O)c(O)c1 [AC1NZZMF]	76.8	102	82.5	96.8	86.8	112	106	104	95.7	78.7	90.1	112	99.7	122	96.6	113	89.4	93.8	84.9	75.7
Cc1ccc(S(=O)(=O)NC2c3ccccc3Oc3ccccc32)cc1 [AH-7614]	103	112	87.8	94.5	86.2	100	95.9	102	95.4	104	92	95.9	89.9	98.1	76.4	94	94.1	100	94.7	93.3
C[C@]12CC[C@H](O)CC1=CC[C@@H]1[C@@H]2CC[C@]2(C)C(c3cccnc3)=CC[C@@H]12 [Abiraterone]	142	97.7	136	80.3	124	115	101	94.3	101	91.8	109	113	107	112	89.4	96.4	96.5	107	114	99
O=C(COc1ccc(C(=O)c2ccccc2)cc1)NC1CCN(Cc2ccccc2)CC1 [AdipoRon]	102	118	81.9	111	70	93.9	107	104	91.9	59.6	90.2	105	79.7	104	58.3	86.7	92	94.2	91.9	48.6
CCOC(=O)[C@H]1O[C@@H]1C(=O)N[C@@H](CC(C)C)C(=O)NCCC(C)C [Aloxistatin]	103	120	108	114	74	99.8	104	103	92.9	86.5	90.9	112	85.4	105	99.1	99.1	104	110	97.8	87.8
N[C@](CCCCB(O)O)(CCN1CCCCC1)C(=O)O [Arginase inhibitor 1]	131	104	73.9	106	117	97.2	84.2	96.6	100	92	120	102	93.1	90.6	88.4	101	92.3	103	92.4	84.9
Cc1noc2c1-c1ccccc1C(c1ccc(Cl)cc1)=N[C@H]2CC(N)=O [CPI-0610]	110	102	69.4	33	16.1	100	93.9	62.6	21.5	12.7	87.7	88.2	80.7	32.1	34.5	86.1	84	57.2	3.4	1.28
Nc1ccn([C@@H]2O[C@H](CO)[C@@H](O)[C@@H]2O)c(=O)n1 [Cytarabine]	100	95.1	82.3	28	0.475	108	108	63.5	21.8	11.3	104	70	57.6	32.4	24.4	103	89.2	84.2	34.4	0.163
CCOc1ccc(Cc2cc([C@@H]3O[C@H](CO)[C@@H](O)[C@H](O)[C@H]3O)ccc2Cl)cc1 [Dapagliflozin]	101	86.8	81.3	94.4	104	95.5	102	83.6	101	91.8	98.9	108	81.4	101	94.6	93.7	106	94.3	94.6	86.9
CCN(CC)CCN(Cc1ccc(-c2ccc(C(F)(F)F)cc2)cc1)C(=O)Cn1c(SCc2ccc(F)cc2)nc(=O)c2c1CCC2 [Darapladib]	101	95.7	101	81.9	-0.402	104	108	93.6	87.8	0.0114	99.1	122	81.6	73.6	-0.273	88.5	104	87.8	102	-0.522
O=C(O)C(Cl)Cl [Dichloroacetate]	96.5	115	104	109	120	108	94.6	91.5	93	103	96.5	108	93	96.2	105	99.6	91.5	83.5	98.5	102
O=C1Oc2ccccc2C(=O)C1CC1C(=O)Oc2ccccc2C1=O (stereo not given) [Dicumarol]	98.3	102	101	104	112	106	105	88.6	101	95.9	95.1	106	97.2	100	95.8	89.7	111	87	97.5	93.6
CC12CCC(O)CC1CCC1C2CCC2(C)C(C3=CC(=O)OC3)CCC12O (stereo not given) [Digitoxigenin]	101	105	103	1.05	-1.85	128	113	87.5	6.15	-1.05	94.8	106	77.1	3.12	-1.21	96.8	120	100	1.01	-1.41
C[C@H]1O[C@@H](O[C@H]2[C@@H](O)C[C@H](O[C@H]3[C@@H](O)C[C@H](O[C@H]4CC[C@@]5(C)[C@H](CC[C@@H]6[C@@H]5C[C@@H](O)[C@]5(C)[C@@H](C7=CC(=O)OC7)CC[C@]65O)C4)O[C@@H]3C)O[C@@H]2C)C[C@H](O)[C@@H]1O [Digoxin]	104	107	-0.615	-0.309	-0.00704	92	108	27.9	0.685	-0.0339	95.2	107	41.8	-0.121	0.146	110	114	4.71	0.26	0.435
O=c1c2ccccc2[se]n1-c1ccccc1 [Ebselen]	107	94.8	102	95.6	77.6	98.2	89.7	105	80.3	75.4	96.6	102	91	90.5	72.3	93	92.5	93.8	99.7	68
Clc1ccc(COC(Cn2ccnc2)c2ccc(Cl)cc2Cl)cc1 (stereo not given) [Econazole]	120	80.3	109	81.2	41.5	97.4	95.3	101	86	52.2	97.4	89.8	93.1	69	38.1	103	83.4	89.3	57.4	25.2
C#Cc1cnc(O)nc1O [Eniluracil]	112	134	123	95.1	111	103	117	107	100	114	101	113	113	102	94.5	102	112	104	108	106
